# Results published in patent US4310660A, “Lincomycin compounds” (The Upjohn Company, priority 1980, dated 1982).
# Where a name gives a salt, the structure may show the parent alone. Read-outs that look alike come from different tables or passages of the source.
# Key:
# [1] = system: Bacteroides melaninogenicus; assay: MIC vs. anaerobic bacteria, agar dilution; type: cell-based; settings: UC6326, UC 6326, read-out: Minimal Inhibitory Concentration (MIC)
# [2] = system: Fusobacterium necrophorum; assay: MIC vs. anaerobic bacteria, agar dilution; type: cell-based; settings: UC6568, UC 6568, read-out: Minimal Inhibitory Concentration (MIC)
# Clostridium sordellii = assay: MIC vs. anaerobic bacteria, agar dilution; type: cell-based; settings: Paraclostridium sordellii, UC6505, UC 6505, read-out: Minimal Inhibitory Concentration (MIC)
# Procedure: (§1) The procedure for the above test is as follows: Serial two-fold dilutions of drug are prepared in 1.0 ml volumes of Schaedler Broth, and 9.0 ml of molten (47° C.) Wilkens-Chalgren Agar Medium, infra, is added to the antibiotic-supplemented broth. After mixing with the antibiotic, the agar is poured into 100 mm×20 mm petri dishes. The dishes are allowed to stand on the bench overnight prior to inoculation.
# (§2) Cultures are streaked on Wilkens-Chalgren Agar, and grown for 48 hours at 37° C. in a BBL Anaerobe Jar. Growth from the plate is harvested, and a cell suspension is made in Schaedler broth to equal the turbidity of a 0.5 McFarland Standard (10^8 cells/ml). The suspension is pipetted into the wells of a Steers replicator, and approx. 1-2 μl is delivered to the surface of the agar plates. After allowing a few minutes for the inoculum to dry, the plates are placed in a BBL Anaerobe Jar (atomsphere of 85% N, 10% H, 5% CO2) and incubated at 37° C. for 72 hours.
# (§3) The Minimal Inhibitory Concentration (MIC) is read as the least amount of drug that inhibits growth. A very faint film of growth, or <3 is colonies is considered negative.
# Clostridium tentani = assay: MIC vs. anaerobic bacteria, agar dilution; type: cell-based; settings: UC6521, UC 6521, read-out: Minimal Inhibitory Concentration (MIC)
# Procedure: as §1, §2, §3
# Clostridium novyi B = assay: MIC vs. anaerobic bacteria, agar dilution; type: cell-based; settings: UC6329, UC 6329, read-out: Minimal Inhibitory Concentration (MIC)
# Procedure: as §1, §2, §3
# Fusobacterium nucleatum = assay: MIC vs. anaerobic bacteria, agar dilution; type: cell-based
# Clostridium cadaveris = assay: MIC vs. anaerobic bacteria, agar dilution; type: cell-based; settings: UC6510, UC 6510, read-out: Minimal Inhibitory Concentration (MIC)
# Clostridium perfringens = assay: microbe, parasite or virus in culture; type: cell-based
# Propionibacterium acnes = assay: MIC vs. anaerobic bacteria, agar dilution; type: cell-based; settings: Cutibacterium acnes
# Peptococcus aerogenes = assay: MIC vs. anaerobic bacteria, agar dilution; type: cell-based; settings: Peptoniphilus asaccharolyticus, UC6319, UC 6319, read-out: Minimal Inhibitory Concentration (MIC)
# Eubacterium lentum = assay: MIC vs. anaerobic bacteria, agar dilution; type: cell-based; settings: Eggerthella lenta, UC6522, UC 6522, read-out: Minimal Inhibitory Concentration (MIC)
# Clostridium difficile = assay: MIC vs. anaerobic bacteria, agar dilution; type: cell-based; settings: Clostridioides difficile
# Actinomyces naeslundii = assay: MIC vs. anaerobic bacteria, agar dilution; type: cell-based; settings: UC5920, read-out: Minimal Inhibitory Concentration (MIC)
# [3] = system: Bacteroides thetaiotaomicon; assay: MIC vs. anaerobic bacteria, agar dilution; type: cell-based; settings: UC6512, UC 6512, read-out: Minimal Inhibitory Concentration (MIC)
# Clostridium botulinum A = assay: microbe, parasite or virus in culture; type: cell-based; settings: UC6506, read-out: Minimal Inhibitory Concentration (MIC)
# [4] = system: Peptococcus asaccharolyticus; assay: MIC vs. anaerobic bacteria, agar dilution; type: cell-based; settings: Peptoniphilus asaccharolyticus, UC6214, UC 6214, read-out: Minimal Inhibitory Concentration (MIC)
# Eubacterium limosum = assay: MIC vs. anaerobic bacteria, agar dilution; type: cell-based; settings: UC6515, UC 6515, read-out: Minimal Inhibitory Concentration (MIC)
# Fusobacterium varium = assay: MIC vs. anaerobic bacteria, agar dilution; type: cell-based; settings: UC6052, UC 6052, read-out: Minimal Inhibitory Concentration (MIC)
# S. aureus = assay: Mouse Protection Test; type: in vivo; settings: Staphylococcus aureus
# Description: (§4) Immediately before use, the suspensions were thawed quickly and properly diluted. Infection was via the intrapertioneal route.
# (§5) Treatment of the infected groups was begun immediately and continued once per day for 4 days (first 24 hr period=1). Groups of untreated mice served as virulence controls for the culture.
# (§6) Seven days after the treatment regimen was begun the surviving animals were sacrificed and the median protective dose of the antibiotic calculated on the basis of mortality rates in the treatment groups. The median protective dose and its 95% confidence interval were calculated according to the method of Spearmen & Karber as programmed on a 360 digital computer.
# K. pneumoniae = assay: Mouse Protection Test; type: in vivo; settings: Klebsiella pneumoniae, 168 h; route not given; once per day for 4 days; read-out: CD50 (median protective dose)
# Description: as §4, §5, §6
# S. hemolyticus = assay: Mouse Protection Test; type: in vivo; settings: for ED50: 168 h
# Description: as §4, §5, §6
# D. pneumoniae I = assay: Mouse Protection Test; type: in vivo; settings: Streptococcus pneumoniae, 168 h, strain Felton I, read-out: Median Protective Dose (CD50)
# Description: as §4, §5, §6
# (§7) U-60,970E was also tested in vivo in standard laboratory mice which were experimentally infected with bacteria. The test was conducted in comparison with U-57,930E.
# D. pneumoniae III = assay: Mouse Protection Test; type: in vivo; settings: strain MPI III, two experiments listed; for ED50: Streptococcus pneumoniae, 168 h, read-out: Median Protective Dose (CD50); for Median Protective Dose (CD50): 10080 min, listed as U-57930E . Hcl
# Description: as §4, §5, §6, §7
smiles,measurement,setting,value
"CC[C@@H]1CCN[C@H](C(=O)N[C@@H]([C@H]2O[C@H](SC)[C@H](O)[C@@H](O)[C@H]2O)[C@H](C)Cl)C1 [U-57,930E, 4-Cis-ethyl-1-pipecolic acid amide of 7-Cl-MTL.HCl]",MIC,[1],0.06 µg/mL
same,MIC,[2],0.06 µg/mL
same,MIC,Clostridium sordellii,0.5 µg/mL
same,MIC,Clostridium tentani,≤ 0.03 µg/mL
same,MIC,Clostridium novyi B,0.12 µg/mL
same,MIC,"Fusobacterium nucleatum; UC6324, UC 6324, read-out: Minimal Inhibitory Concentration (MIC)",0.06 µg/mL
same,MIC,"Fusobacterium nucleatum; UC6516, UC 6516, read-out: Minimal Inhibitory Concentration (MIC)",0.12 µg/mL
same,MIC,Clostridium cadaveris,0.06 µg/mL
same,MIC,"Clostridium perfringens; UC247, read-out: Minimal Inhibitory Concentration (MIC)",0.12 µg/mL
same,MIC,"Clostridium perfringens; UC6509, read-out: Minimal Inhibitory Concentration (MIC)",0.12 µg/mL
same,MIC,"Propionibacterium acnes; UC6564, UC 6564, read-out: Minimal Inhibitory Concentration (MIC)",0.12 µg/mL
same,MIC,"Propionibacterium acnes; UC6575, UC 6575, read-out: Minimal Inhibitory Concentration (MIC)",0.06 µg/mL
same,MIC,Peptococcus aerogenes,0.06 µg/mL
same,MIC,Eubacterium lentum,1 µg/mL
same,MIC,"Clostridium difficile; UC6834, UC 6834, read-out: Minimal Inhibitory Concentration (MIC)",3.9 µg/mL
same,MIC,"Clostridium difficile; UC6857, UC 6857, read-out: Minimal Inhibitory Concentration (MIC)",125 µg/mL
same,MIC,"Clostridium difficile; UC6858, UC 6858, read-out: Minimal Inhibitory Concentration (MIC)",3.9 µg/mL
same,MIC,"Clostridium difficile; UC6860, UC 6860, read-out: Minimal Inhibitory Concentration (MIC)",500 µg/mL
same,MIC,"Clostridium difficile; UC6861, UC 6861, read-out: Minimal Inhibitory Concentration (MIC)",2 µg/mL
same,MIC,Actinomyces naeslundii,0.25 µg/mL
same,MIC,[3],0.5 µg/mL
same,MIC,Clostridium botulinum A,≤ 0.03 µg/mL
same,MIC,[4],0.25 µg/mL
same,MIC,Eubacterium limosum,2 µg/mL
same,MIC,Fusobacterium varium,3.9 µg/mL
same,ED50,"S. aureus; 168 h, oral, once per day for 4 days, 95% confidence interval, read-out: CD50 (median protective dose)",1 to 5 mg/kg
same,ED50,"S. aureus; UC76, 168 h, strain UC 76, oral, read-out: Median Protective Dose (CD50)",8.12 mg/kg
same,ED50,"S. aureus; UC76, sc, 168 h, strain UC 76, subcutaneous, read-out: Median Protective Dose (CD50)",1.07 mg/kg
same,ED50,"S. aureus; sc, 168 h, read-out: CD50 (median protective dose)",< 5 mg/kg
same,ED50,K. pneumoniae,> 320 mg/kg
same,ED50,"S. hemolyticus; oral, once per day for 4 days, 95% confidence interval, read-out: CD50 (median protective dose)",2.9 mg/kg
same,ED50,"S. hemolyticus; strain C203, oral, read-out: Median Protective Dose (CD50)",3.79 mg/kg
same,Ratio (clindamycin / U-57930A CD50),S. hemolyticus; oral,4.2
same,ED50,"S. hemolyticus; sc, strain C203, subcutaneous, read-out: Median Protective Dose (CD50)",0.38 mg/kg
same,ED50,"S. hemolyticus; sc, subcut., once per day for 4 days, 95% confidence interval, two experiments listed, read-out: CD50 (median protective dose)",0.25 mg/kg
same,ED50,D. pneumoniae I; oral,15.4 mg/kg
same,ED50,"D. pneumoniae I; sc, subcutaneous",1.54 mg/kg
same,ED50,"D. pneumoniae III; po, oral",14.4 mg/kg
same,ED50,"D. pneumoniae III; sc, subcutaneous",2.68 mg/kg
same,Median Protective Dose (CD50),D. pneumoniae III; oral,16.49 (10.51-25.88) mg/kg
same,Median Protective Dose (CD50),D. pneumoniae III; subcutaneous,2.5 (1.69-3.69) mg/kg
